According to ChEMBL document CHEMBL4813981, “Synthesis and in vitro antibacterial activity of new aminothiazole-oximepiperidone cephalosporins” (2021):
In brackets after ≈: the same amount, converted by molar mass.

Legend:
Escherichia coli [1] = assay: Antibacterial activity against ESBLs negative Carbapenem-sensitive Escherichia coli 17-4 assessed as reduction in bacterial growth; format: functional
Escherichia coli [2] = assay: Antibacterial activity against ESBLs negative Carbapenem-sensitive Escherichia coli 17-20 assessed as reduction in bacterial growth; format: functional
Pseudomonas aeruginosa [3] = assay: Antibacterial activity against Carbapenem- sensitive Pseudomonas aeruginosa 17-11 assessed as reduction in bacterial growth; format: functional
Acinetobacter baumannii [4] = assay: Antibacterial activity against Multidrug resistant Acinetobacter baumannii AR 15-2 assessed as reduction in bacterial growth; format: functional
Acinetobacter baumannii [5] = assay: Antibacterial activity against Multidrug resistant Acinetobacter baumannii AR 15-4 assessed as reduction in bacterial growth; format: functional
Escherichia coli [6] = assay: Antibacterial activity against Escherichia coli ATCC 35218 assessed as reduction in bacterial growth in the presence of Avibactam; format: functional
Klebsiella pneumoniae [7] = assay: Antibacterial activity against Klebsiella pneumoniae ATCC BAA-1705 assessed as reduction in bacterial growth in the presence of Avibactam; format: functional
Acinetobacter baumannii [8] = assay: Antibacterial activity against Acinetobacter baumannii NCTC 13304 assessed as reduction in bacterial growth in the presence of Avibactam; format: functional
Pseudomonas aeruginosa [9] = assay: Antibacterial activity against Pseudomonas aeruginosa ATCC 27853 assessed as reduction in bacterial growth in the presence of Avibactam; format: functional
Acinetobacter baumannii [10] = assay: Antibacterial activity against Carbapenem- resistant Acinetobacter baumannii 17-6 assessed as reduction in bacterial growth in the presence of Avibactam; format: functional
Acinetobacter baumannii [11] = assay: Antibacterial activity against Carbapenem- resistant Acinetobacter baumannii 17-11 assessed as reduction in bacterial growth in the presence of Avibactam; format: functional
Klebsiella pneumoniae [12] = assay: Antibacterial activity against Carbapenem- resistant Klebsiella pneumoniae KR 15-4 assessed as reduction in bacterial growth in the presence of Avibactam; format: functional
Klebsiella pneumoniae [13] = assay: Antibacterial activity against Carbapenem- resistant Klebsiella pneumoniae KR 15-5 assessed as reduction in bacterial growth in the presence of Avibactam; format: functional
Klebsiella pneumoniae [14] = assay: Antibacterial activity against Carbapenem- resistant Klebsiella pneumoniae KR 15-10 assessed as reduction in bacterial growth in the presence of Avibactam; format: functional
Klebsiella pneumoniae [15] = assay: Antibacterial activity against Carbapenem- resistant Klebsiella pneumoniae KR 15-11 assessed as reduction in bacterial growth in the presence of Avibactam; format: functional
Pseudomonas aeruginosa [16] = assay: Antibacterial activity against Carbapenem- resistant Pseudomonas aeruginosa 17-1 assessed as reduction in bacterial growth in the presence of Avibactam; format: functional
Pseudomonas aeruginosa [17] = assay: Antibacterial activity against Carbapenem- resistant Pseudomonas aeruginosa 17-8 assessed as reduction in bacterial growth in the presence of Avibactam; format: functional
Klebsiella pneumoniae [18] = assay: Antibacterial activity against ESBLs positive Carbapenem-sensitive Klebsiella pneumoniae 17-6 assessed as reduction in bacterial growth in the presence of Avibactam; format: functional
Klebsiella pneumoniae [19] = assay: Antibacterial activity against ESBLs positive Carbapenem-sensitive Klebsiella pneumoniae 17-15 assessed as reduction in bacterial growth in the presence of Avibactam; format: functional
Escherichia coli [20] = assay: Antibacterial activity against ESBLs positive Carbapenem-sensitive Escherichia coli 17-22 assessed as reduction in bacterial growth in the presence of Avibactam; format: functional
Escherichia coli [21] = assay: Antibacterial activity against ESBLs negative Carbapenem-sensitive Escherichia coli 17-1 assessed as reduction in bacterial growth in the presence of Avibactam; format: functional
Enterobacter cloacae [22] = assay: Antibacterial activity against Enterobacter cloacae 17-2 assessed as reduction in bacterial growth in the presence of Avibactam; format: functional
Enterobacter cloacae [23] = assay: Antibacterial activity against Enterobacter cloacae 17-5 assessed as reduction in bacterial growth in the presence of Avibactam; format: functional
Klebsiella aerogenes [24] = assay: Antibacterial activity against Enterobacter aerogenes 17-2 assessed as reduction in bacterial growth in the presence of Avibactam; format: functional
Pseudomonas aeruginosa [25] = assay: Antibacterial activity against Carbapenem- sensitive Pseudomonas aeruginosa 17-29 assessed as reduction in bacterial growth in the presence of Avibactam; format: functional
Klebsiella pneumoniae [26] = assay: Bactericidal activity against Carbapenem- resistant Klebsiella pneumoniae KR 15-6 assessed as reduction in bacterial growth; format: functional
Escherichia coli [27] = assay: Bactericidal activity against ESBLs negative Carbapenem--sensitive Escherichia coli 17-9 assessed as reduction in bacterial growth; format: functional
Escherichia coli [28] = assay: Bactericidal activity against Escherichia coli NCTC 13353 assessed as reduction in bacterial growth; format: functional
Acinetobacter baumannii [29] = assay: Bactericidal activity against Acinetobacter baumannii NCTC 13304 assessed as reduction in bacterial growth; format: functional
Acinetobacter baumannii [30] = assay: Bactericidal activity against Carbapenem- resistant Acinetobacter baumannii 17-11 assessed as reduction in bacterial growth in the presence of avibactam; format: functional
Klebsiella pneumoniae [31] = assay: Bactericidal activity against Carbapenem- resistant Klebsiella pneumoniae KR 15-6 assessed as reduction in bacterial growth in the presence of avibactam; format: functional
Pseudomonas aeruginosa [32] = assay: Bactericidal activity against Carbapenem- resistant Pseudomonas aeruginosa 17-1 assessed as reduction in bacterial growth in the presence of avibactam; format: functional
Klebsiella pneumoniae [33] = assay: Bactericidal activity against ESBLs positive Carbapenem-sensitive Klebsiella pneumoniae 17-6 assessed as reduction in bacterial growth in the presence of avibactam; format: functional
Escherichia coli [34] = assay: Bactericidal activity against ESBLs negative carbapenem-sensitive Escherichia coli 17-7 assessed as reduction in bacterial growth in the presence of avibactam; format: functional
Escherichia coli [35] = assay: Bactericidal activity against ESBLs negative carbapenem-sensitive Escherichia coli 17-9 assessed as reduction in bacterial growth in the presence of avibactam; format: functional
Escherichia coli [36] = assay: Bactericidal activity against ESBLs negative carbapenem-sensitive Escherichia coli 17-20 assessed as reduction in bacterial growth in the presence of avibactam; format: functional
Escherichia coli [37] = assay: Bactericidal activity against ESBLs positive carbapenem-sensitive Escherichia coli 17-3 assessed as reduction in bacterial growth in the presence of avibactam; format: functional
Escherichia coli [38] = assay: Bactericidal activity against ESBLs positive carbapenem-sensitive Escherichia coli 17-18 assessed as reduction in bacterial growth in the presence of avibactam; format: functional
Enterobacter cloacae [39] = assay: Bactericidal activity against Enterobacter cloacae 17-8 assessed as reduction in bacterial growth in the presence of avibactam; format: functional
Enterobacter cloacae [40] = assay: Bactericidal activity against Enterobacter cloacae 17-9 assessed as reduction in bacterial growth in the presence of avibactam; format: functional
Klebsiella aerogenes [41] = assay: Bactericidal activity against Enterobacter aerogenes 15-4 assessed as reduction in bacterial growth in the presence of avibactam; format: functional
Pseudomonas aeruginosa [42] = assay: Bactericidal activity against carbapenem-sensitive Pseudomonas aeruginosa 17-7 assessed as reduction in bacterial growth in the presence of avibactam; format: functional
Pseudomonas aeruginosa [43] = assay: Bactericidal activity against carbapenem-sensitive Pseudomonas aeruginosa 17-26 assessed as reduction in bacterial growth in the presence of avibactam; format: functional
Escherichia coli [44] = assay: Bactericidal activity against Escherichia coli ATCC 25922 assessed as reduction in bacterial growth in the presence of avibactam; format: functional
Klebsiella pneumoniae [45] = assay: Bactericidal activity against Klebsiella pneumoniae ATCC BAA-1705 assessed as reduction in bacterial growth in the presence of avibactam; format: functional
Acinetobacter baumannii [46] = assay: Antibacterial activity against Carbapenem- resistant Acinetobacter baumannii 17-5 assessed as reduction in bacterial growth
Klebsiella pneumoniae [47] = assay: Antibacterial activity against ESBLs positive Carbapenem-sensitive Klebsiella pneumoniae 17-12 assessed as reduction in bacterial growth

## C[C@@H](O)[C@H]1C(=O)N2C(C(=O)O)=C(S[C@@H]3CN[C@H](C(=O)N(C)C)C3)[C@H](C)[C@H]12 [MEROPENEM]
Escherichia coli [1]
  MIC: < 0.03 µg/mL
Escherichia coli [2]
  MIC: < 0.03 µg/mL
Pseudomonas aeruginosa [3]
  MIC: 2 µg/mL (≈ 5.22 µM)

## CC(C)(O/N=C(\C(=O)N[C@@H]1C(=O)N2C(C(=O)[O-])=C(C[n+]3ccccc3)CS[C@H]12)c1csc(N)n1)C(=O)O [CEFTAZIDIME]
Acinetobacter baumannii [4]
  MIC: > 64 µg/mL
Acinetobacter baumannii [5]
  MIC: > 64 µg/mL
Escherichia coli [6]
  MIC: 0.06 µg/mL
Klebsiella pneumoniae [7]
  MIC: 4 µg/mL
Acinetobacter baumannii [8]
  MIC: 8 µg/mL
Pseudomonas aeruginosa [9]
  MIC: 0.5 µg/mL
Acinetobacter baumannii [10]
  MIC: 8 µg/mL
Acinetobacter baumannii [11]
  MIC: 8 µg/mL
Klebsiella pneumoniae [12]
  MIC: 2 µg/mL
Klebsiella pneumoniae [13]
  MIC: 2 µg/mL
Klebsiella pneumoniae [14]
  MIC: 2 µg/mL
Klebsiella pneumoniae [15]
  MIC: 2 µg/mL
Pseudomonas aeruginosa [16]
  MIC: 8 µg/mL
Pseudomonas aeruginosa [17]
  MIC: 16 µg/mL
Klebsiella pneumoniae [18]
  MIC: 0.5 µg/mL
Klebsiella pneumoniae [19]
  MIC: 1 µg/mL
Escherichia coli [20]
  MIC: 1 µg/mL
Escherichia coli [21]
  MIC: 0.5 µg/mL
Enterobacter cloacae [22]
  MIC: 1 µg/mL
Enterobacter cloacae [23]
  MIC: 1 µg/mL
Klebsiella aerogenes [24]
  MIC: 0.5 µg/mL
Pseudomonas aeruginosa [25]
  MIC: 0.5 µg/mL
Klebsiella pneumoniae [26]
  MBC: 64 µg/mL (≈ 117 µM)
Escherichia coli [27]
  MBC: 4 µg/mL (≈ 7.32 µM)
Escherichia coli [28]
  MBC: > 64 µg/mL
Acinetobacter baumannii [29]
  MBC: > 64 µg/mL
Acinetobacter baumannii [30]
  MBC: 32 µg/mL
Klebsiella pneumoniae [31]
  MBC: 2 µg/mL
Pseudomonas aeruginosa [32]
  MBC: 16 µg/mL
Klebsiella pneumoniae [33]
  MBC: > 8 µg/mL
Escherichia coli [34]
  MBC: 0.125 µg/mL
Escherichia coli [35]
  MBC: 0.25 µg/mL
Escherichia coli [36]
  MBC: > 2 µg/mL
Escherichia coli [37]
  MBC: 0.25 µg/mL
Escherichia coli [38]
  MBC: 0.5 µg/mL
Enterobacter cloacae [39]
  MBC: 1 µg/mL
Enterobacter cloacae [40]
  MBC: > 2 µg/mL
Klebsiella aerogenes [41]
  MBC: 0.25 µg/mL
Pseudomonas aeruginosa [42]
  MBC: 0.25 µg/mL
Pseudomonas aeruginosa [43]
  MBC: 2 µg/mL
Escherichia coli [44]
  MBC: 1 µg/mL
Klebsiella pneumoniae [45]
  MBC: 8 µg/mL
Acinetobacter baumannii [46]
  MIC: > 64 µg/mL
Klebsiella pneumoniae [47]
  MIC: 4 µg/mL (≈ 7.32 µM)

## Nc1nc(/C(=N/OCc2cc(=O)c(O)cn2O)C(=O)N[C@@H]2C(=O)N3C(C(=O)O)=CCS[C@H]23)cs1
Acinetobacter baumannii [4]
  MIC: > 64 µg/mL
Acinetobacter baumannii [5]
  MIC: > 64 µg/mL
Escherichia coli [6]
  MIC: 0.25 µg/mL
Klebsiella pneumoniae [7]
  MIC: 2 µg/mL
Acinetobacter baumannii [8]
  MIC: 16 µg/mL
Pseudomonas aeruginosa [9]
  MIC: 1 µg/mL
Escherichia coli [1]
  MIC: 0.25 µg/mL (≈ 0.492 µM)
Escherichia coli [2]
  MIC: 0.25 µg/mL (≈ 0.492 µM)
Pseudomonas aeruginosa [3]
  MIC: 8 µg/mL (≈ 15.7 µM)
Acinetobacter baumannii [10]
  MIC: 16 µg/mL
Acinetobacter baumannii [11]
  MIC: 8 µg/mL
Klebsiella pneumoniae [12]
  MIC: 4 µg/mL
Klebsiella pneumoniae [13]
  MIC: 2 µg/mL
Klebsiella pneumoniae [14]
  MIC: 1 µg/mL
Klebsiella pneumoniae [15]
  MIC: 1 µg/mL
Pseudomonas aeruginosa [16]
  MIC: 16 µg/mL
Pseudomonas aeruginosa [17]
  MIC: 16 µg/mL
Klebsiella pneumoniae [18]
  MIC: 0.25 µg/mL
Klebsiella pneumoniae [19]
  MIC: 0.125 µg/mL
Escherichia coli [20]
  MIC: 0.5 µg/mL
Escherichia coli [21]
  MIC: 0.25 µg/mL
Enterobacter cloacae [22]
  MIC: 1 µg/mL
Enterobacter cloacae [23]
  MIC: 4 µg/mL
Klebsiella aerogenes [24]
  MIC: 1 µg/mL
Pseudomonas aeruginosa [25]
  MIC: 1 µg/mL
Klebsiella pneumoniae [26]
  MBC: 64 µg/mL (≈ 126 µM)
Escherichia coli [27]
  MBC: 2 µg/mL (≈ 3.93 µM)
Escherichia coli [28]
  MBC: > 64 µg/mL
Acinetobacter baumannii [29]
  MBC: > 64 µg/mL
Acinetobacter baumannii [30]
  MBC: > 64 µg/mL
Klebsiella pneumoniae [31]
  MBC: 0.5 µg/mL
Pseudomonas aeruginosa [32]
  MBC: 64 µg/mL
Klebsiella pneumoniae [33]
  MBC: 0.5 µg/mL
Escherichia coli [34]
  MBC: 1 µg/mL
Escherichia coli [35]
  MBC: 2 µg/mL
Escherichia coli [36]
  MBC: > 0.5 µg/mL
Escherichia coli [37]
  MBC: 0.25 µg/mL
Escherichia coli [38]
  MBC: 1 µg/mL
Enterobacter cloacae [39]
  MBC: 2 µg/mL
Enterobacter cloacae [40]
  MBC: 2 µg/mL
Klebsiella aerogenes [41]
  MBC: 1 µg/mL
Pseudomonas aeruginosa [42]
  MBC: 0.25 µg/mL
Pseudomonas aeruginosa [43]
  MBC: 4 µg/mL
Escherichia coli [44]
  MBC: 0.5 µg/mL
Klebsiella pneumoniae [45]
  MBC: 2 µg/mL
Acinetobacter baumannii [46]
  MIC: > 64 µg/mL
Klebsiella pneumoniae [47]
  MIC: 2 µg/mL (≈ 3.93 µM)
